The text below walks through data of patent publication USRE38352E1, “Polymerase chain reaction assays for monitoring antiviral therapy and making therapeutic decisions in the treatment of acquired immunodeficiency syndrome” (priority 1992, dated 2003).

The subject of assay [1] is HIV with codon 215 mutation. Conditions: mutation at codon 215; cited from earlier work.
The subject of a further assay is plasma HIV RNA. Particulars: patients receiving AZT; ultracentrifugation, 40 cycles (Ottman et al.); cited from earlier work.
The test system of assay [2] is HIV virus stock from patient PBMC. Nature of the assay: AZT sensitivity assay (inhibition of P24 production in donor PBMC). Particulars: Human immunodeficiency virus 1, PBMC. Format: cell-based. As to the method:
Patient PBMC were cocultured with mitogen-stimulated PBMC from healthy HIV-seronegative donors. Supernatants from these cultures were collected and frozen when the HIV P24 antigen concentration exceeded 10,000 pg/ml. 30-100 TCID50 (50% tissue culture infectious dose) of virus stock was used to infect one million donor PBMC pretreated with different concentrations of AZT (0.0 μM, 0.005 μM, 0.05 μM, 0.5 μM, 5.0 μM). After 7 days, P24 antigen was measured in the cell free supernatant from the cultures with and without zidovudine. The concentration of AZT required to inhibit P24 production by 90% (IC90) as compared to the drug free cultures was determined by nonlinear regression analysis (Chou et al., 1984, Adv. Enzyme Regulation 22:27-55).
(§1) All comparisons between the patients with mutant and wild type strains were performed using the student's t-test. The calculations on the IC90s determined by the zidovudine sensitive assay were performed using the logl10 transformed IC90 (i.e., geometric means were used rather than arithmetic means).

The test system of another assay is CD4 cells. The experiment in a line: CD4 cell counts in long term AZT recipients related to codon 215 genotype. Type of assay: in vivo, human (HIV-infected patients). Conditions: for CD4 decline after serum mutation / mean decrease of CD4 cells after serum mutation: 19 patients; for mean CD4 count at the start of therapy: 26 patients who developed codon 215 mutation in serum. As to the method:
Cryopreserved PBMC and serum from 40 participants in AIDS Clinical Trial Group (ACTG) protocols 019 (30 patients) and 016 (10 patients) at Stanford University Medical Center AIDS Clinical Trial Unit were used in this study. Patients at enrollment in these studies were AZT naive, had >200 CD4 cells/μl and had few (016) or no symptoms (019) referable to HIV infection. They were subsequently treated with AZT for 2 to 4 years. The most common dosage was 500 mg per day.
CD4 cell counts were obtained approximately every three months on each patient. All counts were performed at Stanford's ACTG-qualified cytofluorometry lab. Samples were stained with monoclonal antibodies to CD3, CD4, and CD8. The absolute CD4 count was calculated by multiplying the percent CD4 by the total lymphocyte count.
as §1

The mark [3] stands for this setting: 11 patients wild type in serum over 34 months.

Molecules are shown by their SMILES. “And” between values parts separate entries of the source, which are not always exact repeats. Equal values may be shown once. Read-outs that look alike come from different tables or passages of the source.

With `Cc1cn([C@H]2C[C@H](N=[N+]=[N-])[C@@H](CO)O2)c(=O)[nH]c1=O` [AZT, zidovudine], in assay [1], the “decrease in zidovudine susceptibility” value is recorded as 16 fold. The “patients with detectable plasma HIV RNA signal” value in the assay with plasma HIV RNA is 24 of 25. The IC90 – broadly, the point of the concentration-response curve where the effect stands at 90% – was 2 to 38 nM in assay [2] (168 h, isolates from AZT-naive patients, 7 days, read-out: IC90 (inhibition of P24 production by 90%), range); 30 to 8000 nM in assay [2] (nine patients with a mutation at codon 215, read-out: IC90 range); 20 to 280 nM in assay [2] (read-out: IC90 range, eight patients with wild type form at codon 215); 40 nM in assay [2] (read-out: geometric mean IC90, eight patients with wild type form at codon 215, post-treatment PBMC); 410 nM in assay [2] (read-out: geometric mean IC90, nine patients with a mutation at codon 215). In addition, the CD4 increase in the assay with CD4 cells (setting [3]) was 2%. Besides, the “increase of CD4 cells” value with CD4 cells (setting [3]) came to 7±92 CD4 cells/μl. For the same molecule, the figures for the “CD4 decline after serum mutation” value in the assay on CD4 cells (at 12 months) and in the assay on CD4 cells (at six months) were 40% and 25%, respectively. For the same molecule, the “mean decrease of CD4 cells after serum mutation” value is listed as 170±121 CD4 cells/μl in the assay on CD4 cells (at 12 months) and 100±116 CD4 cells/μl with CD4 cells (at six months). In addition, the “mean increase in absolute CD4 count, start of therapy to end of study” value in the assay with CD4 cells (21 patients wild type at codon 215) was 11%. In addition, the “Starting absolute CD4” value with CD4 cells (21 patients wildtype at codon 215 in PBMC) is 397 cells/μl and 397 ± 124 cells/μl. The “mean CD4 count at first detection of codon 215 mutation in serum” value in the assay with CD4 cells (26 patients) was 444±206 cells/μl and 444 cells/μl. Also, the “mean CD4 count at the start of therapy” value is 398±139 cells/μl and 398 cells/μl in the assay with CD4 cells; 398±139 cells/μl in the assay with CD4 cells (listed as zidovudine). The “starting CD4 count” value in the assay with CD4 cells (patients who remained wild type in serum) is given as 397±115 cells/μl. Further, the “CD4 % at time of PCR analysis” value with CD4 cells (wildtype at codon 215 in PBMC) is 25% and 25 ± 9%. Moreover, the “Starting CD4 %” value in the assay with CD4 cells (wildtype at codon 215 in PBMC) is 26 ± 8%; in the assay with CD4 cells ({}), 25 ± 6%. Also, the “Absolute CD4 at time of PCR analysis” value with CD4 cells (wildtype at codon 215 in PBMC, 33 ± 8 months of AZT) was 424 cell/μl and 424 ± 210 cell/μl. Further, the “decrease in absolute CD4 count, start of therapy to end of study” value in the assay with CD4 cells ({}) was 50%.
